Test results taken from US20100311671A1, “TRANSDERMAL DELIVERY OF PKC MODULATORY PEPTIDES THROUGH MI[…]” (Kai Pharmaceuticals, priority 2009, published 2010).

Columns and labels:
[1] = Transdermal delivery of conjugate to microporated rat skin, conjugate level in plasma by sandwich ELISA; type: in vivo, Male CD Hairless rats; conditions: rats; for Intact conjugate present in the blood stream as a function of time: after application to microporated skin, blood draws over 2-3 hour period; for Transdermal delivery of the peptide conjugate: applied to microporated skin relative to intact skin, occluded
Protocol: The γV5 peptide RLVLAS (SEQ ID NO: 43) with an […] (Ac) end cap was attached by a GG linker to a TAT carrier peptide (SEQ ID NO: 46) and then the C-terminus was amidated (NH2) to form a conjugate identified as SEQ ID NO: 49. Transdermal delivery of this conjugate was performed as described in Example 1 except that a 1 cm^2 solid polymer microneedle array was used to microporate the skin and an aqueous reservoir patch was used to contact a 10% aqueous formulation of the conjugate with the microporated skin. Results are shown in FIG. 3, where the amount of conjugate in the blood, in ng/mL, is shown as a function of time.

[2] = microporated vs intact rat skin; 30 μm planar skin sections (FIG. 1A)
Text: Male CD Hairless rats were weighed (range: 300-500 grams) and anesthetized by inhaled isoflurane. The rats remained under anesthesia for the duration of the experiment and were sacrificed after the last blood draw. Rats were cannulated at a femoral or jugular vein for blood draws. A derma roller with 1.0 or 1.5 mm microneedles (Moohan Dr. Roller) was rolled across a 1 cm^2 area of skin on the dorsal trunk or waist by passing the roller over the skin 5 times with moderate pressure. Fifty μL of the cPKC inhibitor peptide [sequence] (SEQ ID NO:13) attached to a TAT carrier peptide to form the conjugate peptide identified as SEQ ID NO: 14 at 1% to 10% (10 to 100 mg/mL) was applied to the microporated skin and occluded with a 1 cm^2 piece of saran wrap. […] As a control, rats with intact skin (i.e., rats not subjected to the microneedle array) were also treated with the same peptide conjugate.
To analyze levels of the εPKC inhibitor peptide [sequence] (SEQ ID NO:13) in plasma, both ELISA on planar skin sections and a sandwich ELISA that uses antibodies that recognize different portions of the conjugate (the εPKC inhibitor peptide and the TAT carrier peptide) were employed.

CC[C@H](C)[C@H](NC(=O)[C@@H]1CCCN1C(=O)[C@H](C)NC(=O)[C@H](CC(=O)O)NC(=O)[C@H](Cc1c[nH]cn1)NC(C)=O)C(=O)NCC(=O)N[C@@H](Cc1ccc(O)cc1)C(=O)N[C@@H](CC(=O)O)C(=O)NCCCCCC(=O)N[C@@H](Cc1ccc(O)cc1)C(=O)NCC(=O)N[C@@H](CCCNC(=N)N)C(=O)N[C@@H](CCCCN)C(=O)N[C@@H](CCCCN)C(=O)N[C@@H](CCCNC(=N)N)C(=O)N[C@@H](CCCNC(=N)N)C(=O)N[C@@H](CCC(N)=O)C(=O)N[C@@H](CCCNC(=N)N)C(=O)N[C@@H](CCCNC(=N)N)C(=O)N[C@@H](CCCNC(=N)N)C(N)=O [SEQ ID NO: 19, AC-HDAPIGYD-AHX-YGRKKRRQRRR-NH2]
Intact conjugate present in the blood stream as a function of time [1]: in an increasing amount with time | Transdermal delivery of the peptide conjugate [1]: enhanced

Ac-EAVSLKPTGGYGRKKRRQRRR-NH2 [SEQ ID NO: 14, Ac-EAVSLKPT GG YGRKKRRQRRR-NH2]
Intact conjugate present in the blood stream as a function of time [1]: in an increasing amount with time | Transdermal delivery of the peptide conjugate [1]: significantly enhanced | Penetration of the peptide conjugate through the stratum corneum and into the underlying skin [2]: increased penetration
